In patent US20130288895A1, “METHODS AND COMPOSITIONS FOR WEED CONTROL” (priority 2011, published 2013):

Each molecule was assayed on A. palmeri (R-22) (assay: Greenhouse test: 2,4-D, glyphosate and trigger polynucleotides). Conditions: 2,4-D 0.0625 lb/A; RU Wmax 1.5 lb/A where included; 14 days after treatment.
Format: in vivo

Row | Molecule | % Control (mean) [%]
1 | CNC.O=C(O)COc1ccc(Cl)cc1Cl [2,4-D, 2,4D amine (dimethylamine salt)] | 60

Same assay, conditions: 2,4-D 0.125 lb/A; RU Wmax 1.5 lb/A where included; 14 days after treatment

Row | Molecule | % Control (mean) [%]
2 | CNC.O=C(O)COc1ccc(Cl)cc1Cl [2,4-D, 2,4D amine (dimethylamine salt)] | 80.8

These molecules were tested on Amaranthus palmeri plants (glyphosate-resistant Palmer amaranth, “R-22”) (assay: Topical trigger oligonucleotide bioassay with glyphosate on Amaranthus palmeri). Conditions: 5.2 triggers to A. palmeri EPSPS coding sequence; topical application with Silwet L-77, glyphosate; relative measure of activity.
Format: in vivo
Design: key: relative measure of activity, the tested oligonucleotide was either active, less active, or inactive in the bioassay; relative measure of activity, the tested oligonucleotide was either active, less active, or inactive in the bioassay; relative measure of activity, the tested oligonucleotide was either active, less active, or inactive in the bioassay

Row | Molecule | Activity
3 | AATGCCAGATGTTGCTATGAC (AATGCCAGATGTTGCTATGAC; antisense; DNA, backbone and methylation of C not given here; 5.2-DNA-wt is double-stranded DNA) [Oligo 5.2-ssDNA-S, ssDNA 21-mer, sense] | less active
4 | GTCATAGCAACATCTGGCATT-3′ddC [5.2-RNA-3′ddC] | inactive
5 | GTC Aat GCA ACA TCT GGC ATT [Oligo 5.2-RNA-M5] | active
6 | TC ATA GCA ACA TCT GGC ATT [5.2-RNA-5′-20] | active
7 | GTCATAGCAACATCTGGCATT [5.2-DNA-wt] (GTCATAGCAACATCTGGCATT; DNA, backbone and methylation of C not given here; 5.2-DNA-wt is double-stranded DNA) [Oligo 5.2-DNA-wt, dsDNA 21-mer] | active
8 | GTCATAGCAACATCTGGCATT [5.2-ssDNA-AS] (GTCATAGCAACATCTGGCATT; antisense; DNA, backbone and methylation of C not given here; 5.2-DNA-wt is double-stranded DNA) [Oligo 5.2-ssDNA-AS, ssDNA 21-mer, antisense] | less active
9 | GTCATAGCAACATCTGGCATT [Oligo 5.2-RNA-wt] | active
10 | ATA GCA ACA TCT GGC ATT [5.2-RNA-5′-18] | inactive
11 | GTCATAGCAACATCTGGCATT-3′IdT [5.2-RNA-3′IdT] | inactive
12 | GTCATAGCAACATCTGGCATT [5.2-sDNA/asRNA] (GTCATAGCAACATCTGGCATT; RNA, backbone and T or U not given here; hybrid: sense DNA strand with antisense RNA strand) [DNA/RNA hybrid 21-mer] | inactive
13 | GTCATAGCAACATCTGGCATT [5.2-asDNA/sRNA] (GTCATAGCAACATCTGGCATT; chemistry not fully specified) [DNA/RNA hybrid 21-mer] | inactive
14 | C ATA GCA ACA TCT GGC ATT [5.2-RNA-5′-19] | less active

Same assay, conditions: AS83 made as ssDNA, dsRNA, dsDNA; making Palmer R-22 plant sensitive to glyphosate

Row | Molecule | Activity
15 | CUCUUUGUUUUUCUUCUGCCAAUUU (CUCUUUGUUUUUCUUCUGCCAAUUU; RNA, backbone not given here; further chemistry not fully specified; listed as Amaranthus palmeri) [AS83-RNA-wt-] | active
16 | CTCTTTGTTTTTCTTCTGCCAATTT (CTCTTTGTTTTTCTTCTGCCAATTT; chemistry not fully specified) [AS83-DNA-blunt, dsDNA 25-mer] | active

Same assay, conditions: AS83 triggers to EPSPS promoter of glyphosate resistant A. palmeri; 3′/5′ deletions, mismatch mutations; relative measure of activity

Row | Molecule | Activity
17 | TTG TTT TTC TTC TGC CAA (TTGTTTTTCTTCTGCCAA; DNA, backbone and methylation of C not given here) [AS83-DNA-18-5′D, ssDNA 18-mer] | inactive
18 | CTCTTTGTTTTTCTTCTGCC (CTCTTTGTTTTTCTTCTGCC; DNA, backbone and methylation of C not given here) [AS83-DNA-20-3′D, ssDNA 20-mer] | active
19 | TTGTTTTTCTTCTGCCAATT (TTGTTTTTCTTCTGCCAATT; chemistry not given here) [AS83-DNA-20-5′D, ssDNA 20-mer] | active
20 | TCTTTGTTTTTCTTCTGCCAATTT (TCTTTGTTTTTCTTCTGCCAATTT; chemistry not given here) [AS83-DNA-24-5′D, ssDNA 24-mer] | active
21 | TTG TTT TTC TTC TGC CAA T (TTGTTTTTCTTCTGCCAAT; DNA, backbone and methylation of C not given here) [AS83-DNA-19-5′D, ssDNA 19-mer] | less active
22 | CTC TTT GTT TTT CTT CT (CTCTTTGTTTTTCTTCT; DNA, backbone and methylation of C not given here) [AS83-DNA-17-3′D, ssDNA 17-mer] | inactive
23 | CTC TTT GTT TTT CTT CTG (CTCTTTGTTTTTCTTCTG; DNA, backbone and methylation of C not given here) [AS83-DNA-18-3′D, ssDNA 18-mer] | inactive
24 | CTTTGTTTTTCTTCTGCCAATTT (CTTTGTTTTTCTTCTGCCAATTT; chemistry not given here) [AS83-DNA-23-5′D, ssDNA 23-mer] | active
25 | CTC TTT GTT TTT CTT CTG C (CTCTTTGTTTTTCTTCTGC; DNA, backbone and methylation of C not given here) [AS83-DNA-19-3′D, ssDNA 19-mer] | inactive
26 | CTCTTTGTTTTTCTTCTGCCAATTT-3′ddC [AS83-DNA-3′ddC] | inactive
27 | CTCTTTGTTTTTCTTCTGCCAATT (CTCTTTGTTTTTCTTCTGCCAATT; chemistry not given here) [AS83-DNA-24-3′D, ssDNA 24-mer] | active
28 | TTTGTTTTTCTTCTGCCAATTT (TTTGTTTTTCTTCTGCCAATTT; chemistry not given here) [AS83-DNA-22-5′D, ssDNA 22-mer] | active
29 | TTG TTT TTC TTC TGC CA (TTGTTTTTCTTCTGCCA; DNA, backbone and methylation of C not given here) [AS83-DNA-17-5′D, ssDNA 17-mer] | inactive
30 | CTCTTTGTTTTTCTTCTGCCAATTT-3′InvdT [AS83-DNA-3′InvdT] | inactive
31 | TTGTTTTTCTTCTGCCAATTT (TTGTTTTTCTTCTGCCAATTT; chemistry not given here) [AS83-DNA-21-5′D, ssDNA 21-mer] | active
32 | CTCTTTGTTTTTCTTCTGCCAATTT (antisense CTCTTTGTTTTTCTTCTGCCAATTT; DNA, backbone and methylation of C not given here; listed as Amaranthus palmeri) [AS83-DNA-25-wt] | active
33 | CTCTTTGTTTTTCTTCTGCCAA (CTCTTTGTTTTTCTTCTGCCAA; chemistry not given here) [AS83-DNA-22-3′D, ssDNA 22-mer] | active
34 | CTCTTTGTTTTTCTTCTGCCA (CTCTTTGTTTTTCTTCTGCCA; chemistry not given here) [AS83-DNA-21-3′D, ssDNA 21-mer] | active
35 | CTCTTTGTTTTTCTTCTGCCAAT (CTCTTTGTTTTTCTTCTGCCAAT; chemistry not given here) [AS83-DNA-23-3′D, ssDNA 23-mer] | active

The molecules below were run on Corn plants transformed with the CP4 EPSPS gene (assay: CP4 EPSPS dsRNA triggers plus RoundUp Ultra on transgenic glyphosate tolerant corn). Conditions: trigger 210, 630, 1890 pmol; RoundUp Ultra 1.5 a.e. lb/acre two-three days later; FIG. 2.
Protocol: Corn and cotton plants that were transformed with the CP4 EPSPS gene and are resistant to glyphosate were planted in pots in a greenhouse along with negative isolines for each and grown to the first true leaf emergence stage then treated with a trigger solution containing 0.5% Silwet L77, 2% ammonium sulfate, 20 mM Na Phoshpate (pH 6.8) at different rates of trigger amount, 0 picomoles (pmol), 210 pmol, 630 pmol and 1890 pmol. For each replication (8-10 plants), two fully expanded cotyledons were treated by pipette with 50 microliters of trigger solution each, then sprayed two-three days later with 1.5 a.e.lb/acre) of RoundUp™ Ultra (glyphosate, Monsanto, St Louis, Mo.). The cotton and corn plants were scored for stunting and injury 7-16 days after spray treatment.

Row | Molecule | glyphosate injury of corn plants
36 | CP4-34: dsRNA trigger, 594-1043 of SEQ ID NO:1 (CP4 EPSPS), a 450 polynucleotide (nucleic acid, listed as Agrobacterium tumefaciens, dsRNA form) DNA: CGATCATACGGAAAAGATGCTGCAGGGCTTTGGCGCCAACCTTACCGTCGAGACGGATGCGGACGGCGTGCGCACCATCCGCCTGGAAGGCCGCGGCAAGCTCACCGGCCAAGTCATCGACGTGCCGGGCGACCCGTCCTCGACGGCCTTCCCGCTGGTTGCGGCCCTGCTTGTTCCGGGCTCCGACGTCACCATCCTCAACGTGCTGATGAACCCCACCCGCACCGGCCTCATCCTGACGCTGCAGGAAATGGGCGCCGACATCGAAGTCATCAACCCGCGCCTTGCCGGCGGCGAAGACGTGGCGGACCTGCGCGTTCGCTCCTCCACGCTGAAGGGCGTCACGGTGCCGGAAGACCGCGCGCCTTCGATGATCGACGAATATCCGATTCTCGCTGTCGCCGCCGCCTTCGCGGAAGGGGCGACCGTGATGAACGGTCTGGAAGAACT | dead or damaged terminal leaves
37 | CP4-12: dsRNA trigger, 82-462 of SEQ ID NO:1 (CP4 EPSPS), a 381 polynucleotide (nucleic acid, listed as Agrobacterium tumefaciens, dsRNA form) DNA: ATCTCCCACCGGTCCTTCATGTTCGGCGGTCTCGCGAGCGGTGAAACGCGCATCACCGGCCTTCTGGAAGGCGAGGACGTCATCAATACGGGCAAGGCCATGCAGGCCATGGGCGCCAGGATCCGTAAGGAAGGCGACACCTGGATCATCGATGGCGTCGGCAATGGCGGCCTCCTGGCGCCTGAGGCGCCGCTCGATTTCGGCAATGCCGCCACGGGCTGCCGCCTGACCATGGGCCTCGTCGGGGTCTACGATTTCGACAGCACCTTCATCGGCGACGCCTCGCTCACAAAGCGCCCGATGGGCCGCGTGTTGAACCCGCTGCGCGAAATGGGCGTGCAGGTGAAATCGGAAGACGGTGACCGTCTTCCCGTTACCTTG | dead or damaged terminal leaves
